Laboratory results: US20170038387A1, “METHODS FOR TREATING CHRONIC LYMPHOCYTIC LEUKEMIA AND THE USE OF BIOMARKERS AS A PREDICTOR OF CLINICAL SENSITIVITY TO IMMUNOMODULATORY THERAPIES” (Celgene Corporation, priority 2015, published 2017)

Legend:
PDE6D = assay: Western blot of residual PDE6D protein level; assay type: cell-based; details: 1 μM Compound A vs 10 μM lenalidomide, 72 hours; EHEB, I83-E95, Mec2, CII, and CI
Method: Cells were then harvested and processed for SDS-PAGE and western blot. PDE6D antibody was purchased from Pierce and used at 1:300. For western blot quantification, the band intensity was measured using an Odyssey imager and then normalized to β-actin loading controls. Scatter plot: […]

CLL cell lines = assay: Thymidine incorporation assay (cell proliferation); assay type: cell-based
Method: After four days, cells were diluted 1:7 with fresh media, containing the same concentration of treatment compound. Three days later, ^3H-thymidine was added to label proliferating cells for 6-7 hours. Cells were then harvested onto filter plates for counting on a scintillation counter.

[1] = test system: samples from CLL patients; assay: in vitro proliferation assays on samples from four groups of CLL patients; assay type: cell-based, human
Excerpt: The samples used in this study were from four groups of CLL patients.

primary CLL samples = assay: TMT-tagging and mass-spectrometry profiling of relative protein abundance after compound exposure; assay type: cell-based, human
Excerpt: Data import: Relative abundance (RA) data was imported into the R statistical programming environment v.3.1.2. Proteins with less than one spectral count in any of the three MS runs for each case scenario were filtered out and relative abundance was scale normalized to the same median by using normalizeBetweenArrays( ) function implemented in the limma package for Bioconductor (see Yang et al., Nucleic Acids Research, 30(4), e15 (2002)).
Comparative analysis: RA scores were log 2-transformed to perform direct comparison of compounds exposure versus DMSO control and a paired moderated t-test (see Smyth, Statistical Applications in Genetics and Molecular Biology, 3(1), article 3 (2004)) was performed by using lmfit( ) and eBayes( ) functions form limma package to test differential relative abundance between experimental conditions. For differential analysis across cases, the log-2 fold changes of replicates for two of the case scenarios were considered.
Linear regression analysis: Linear regression was modeled by using lm( ) function from the stats package. This function provided the correlation coefficients as well as the linear fitted model. Data were assessed for outliers detection within the linear model via the Studentized residuals method (implemented in outlierTest( ) function from car package) and deemed significant if their q-values were under a threshold of 0.05 (5%).
The proteins subjected to the analysis were those with more than one spectral count matched in three MS runs representing each case scenario. A total of 6114, 6070, 5982 and 5382 proteins were retained for each case scenario. Differential expression analysis was applied to the high and consistent coverage of 4594 proteins quantified across all case scenarios. FIGS. 2A-2D show distribution of normalized relative abundances for each replicate of the four case scenarios (Cases B1-B4). The standard deviation of each replicate is represented as a stair-plot line at the bottom of the boxplot. FIGS. 3A-3D show heatmaps representing correlations of log 2 fold-changes of protein levels post compound treatment as compared with DMSO across conditions for all case scenarios. Low correlation of log 2 fold-changes at 6 hours may be due to the alteration of a small subset of proteins at an early time point without strong general effects across the proteome. Stronger correlations at 24 hours can be linked to a higher proportion of proteins perturbed reflecting downstream changes upon compound exposure.

## Cc1nc2cccc(N)c2c(=O)n1C1CCC(=O)NC1=O (stereo not drawn) [Compound A, 3-(5-amino-2-methyl-4-oxo-4H-quinazolin-3-yl)-piperidine-2,6-dione]
PDE6D
  PDE6D reduction: more PDE6D reduction
CLL cell lines; 1 μM Compound A vs 10 μM lenalidomide, EHEB, I83-E95, Mec2, CII, and CI
  cell growth inhibition: more cell growth inhibition
CLL cell lines; Bucket #1 (EHEB and I83-E95)
  responsiveness of cell lines to treatment: responsive to both compounds
CLL cell lines; Bucket #2 (Mec2, CII, and CI)
  responsiveness of cell lines to treatment: more sensitive to Compound A than to lenalidomide
CLL cell lines; Bucket #3 (WA-C3-CD5, WA-OSEL, Mec1, and PGA1)
  responsiveness of cell lines to treatment: responsive to Compound A
CLL cell lines; Bucket #4 (HG3)
  responsiveness of cell lines to treatment: not responsive to either Compound A or lenalidomide
[1]; samples from the fourth group of patients (Case B4)
  effect on cell proliferation: neither Compound A nor lenalidomide had any effect on cell proliferation
[1]; samples from the second group of patients (Case B2)
  effect on cell proliferation: stronger proliferation reduction effect than lenalidomide
[1]; samples from the third group of patients (Case B3)
  effect on cell proliferation: reduced cell proliferation
Primary CLL samples; 10 μM, 24 hours
  protein abundance levels of SELL, SNX20 and KLF13 upon exposure: down-regulated
Primary CLL samples; Case B1
  level of WIZ (widely-interspaced zinc-finger) upon exposure: decreased
Primary CLL samples; Case B1, 10 μM, 24 hours
  RA upon Cmp A vs. len Treatment, IKZF1 (Q13422): Lower
  RA upon Cmp A vs. len treatment, BCL2L1 (Q07817): Higher
  RA upon Cmp A vs. len treatment, GZMB (P10144): Lower
  RA upon Cmp A vs. len treatment, IGHM (P01871-2): Lower
  RA upon Cmp A vs. len treatment, IKZF1 (Q13422-2): Lower
  RA upon Cmp A vs. len treatment, IRF8 (Q02556): Lower
  RA upon Cmp A vs. len treatment, KLF13 (Q9Y2Y9): Lower
  RA upon Cmp A vs. len treatment, LGALS9 (O00182): Lower
  RA upon Cmp A vs. len treatment, MARCKS (P29966): Higher
  RA upon Cmp A vs. len treatment, NDE1 (Q9NXR1): Higher
  RA upon Cmp A vs. len treatment, NFKBIE (O00221): Lower
  RA upon Cmp A vs. len treatment, PTK2B (Q14289-2): Higher
  RA upon Cmp A vs. len treatment, SAMSN1 (Q9NSI8): Higher
  RA upon Cmp A vs. len treatment, SELL (P14151-2): Lower
  RA upon Cmp A vs. len treatment, SLAMF1 (Q13291): Higher
  RA upon Cmp A vs. len treatment, SNX20 (Q7Z614): Lower
  RA upon Cmp A vs. len treatment, SOD2 (P04179): Higher
  RA upon Cmp A vs. len treatment, TCF7 (P36402-3): Lower
  RA upon Cmp A vs. len treatment, TRAF1 (Q13077): Higher
  RA upon Cmp A vs. len treatment, WIZ (M0QXA7): Lower
  RA upon Cmp A vs. len treatment, ZBTB10 (Q96DT7): Higher
Primary CLL samples; Case B2, 10 μM, 24 hours
  RA upon Cmp A vs. len Treatment, IKZF1 (Q13422): Lower
  RA upon Cmp A vs. len Treatment, IKZF3 (Q9UKT9): Lower
Primary CLL samples; Case B3
  abundance levels of GBP2 and GBP4 upon exposure: increased abundance levels
Primary CLL samples; Case B3, 10 μM, 24 hours
  RA upon Cmp A vs. len Treatment, CD40 (P25942): Higher
  RA upon Cmp A vs. len Treatment, CR2 (P20023-3): Higher
  RA upon Cmp A vs. len Treatment, CTSS (P25774): Higher
  RA upon Cmp A vs. len Treatment, GBP1 (P32455): Higher
  RA upon Cmp A vs. len Treatment, IKZF1 (Q13422): Lower
  RA upon Cmp A vs. len Treatment, IKZF3 (Q9UKT9): Lower
  RA upon Cmp A vs. len Treatment, ISG20 (Q96AZ6): Higher
  RA upon Cmp A vs. len Treatment, SASH1 (O94885): Higher
  RA upon Cmp A vs. len Treatment, SEMA7A (O75326): Higher
  RA upon Cmp A vs. len treatment, PTK2B (Q14289-2): Higher
  RA upon Cmp A vs. len treatment, SAMSN1 (Q9NSI8): Higher
  RA upon Cmp A vs. len treatment, SELL (P14151-2): Lower
  RA upon Cmp A vs. len treatment, SLAMF1 (Q13291): Higher
